Reference: paper PMC5187537, “Antioxidant Activity of Oat Proteins Derived Peptides in Stressed Hepatic HepG2 Cells” (Antioxidants, 2016)
Peptide text beside a SMILES is read from it.

Columns and labels:
Type in all cases: cell-based, Human
[1] = test system: intracellular ROS of HepG2 cells; assay: Intracellular reactive oxygen species, DCFH2-DA assay; settings: 100 µM peptide 24 h, then 20 mM AAPH 24 h, 40 µM DCFH2-DA, fluorescence 60 min
Description: The measurement of intracellular ROS was determined using a method described by Wolfe and Rui, with modifications. HepG2 cells were seeded at 4 × 10^4 cells/well in a 96-well tissue culture plate and were treated for 24 h with 100 µM of peptide dissolved in media, with the exception of NC and PC controls. Media was removed, cells washed twice with PBS, incubated (24 h) with 20 mM AAPH and washed again with PBS. Two hundred µL of 40 µM DCFH2-DA dissolved in buffer was added, and fluorescent intensity was immediately recorded at 2 min intervals for a total of 60 min. The percentage increase in fluorescent intensity was calculated as shown in Equation (1). (1) Fluorescent increase (%)=Final reading−Initial reading/Initial reading×100

[2] = test system: superoxide dismutase (SOD); assay: Superoxide dismutase activity of lysates of AAPH-stressed cells; settings: 50 and 100 µM peptide 24 h, then AAPH 24 h
Description: Cells were seeded at 1 × 10^6 cells/plate in 60 mm tissue culture plates and allowed to grow for 24 h. In each plate, cells were washed twice with 4 mL of PBS (pH 7.2), and treated with 4 mL peptide samples (P1, P2, P6, P7) dissolved in culture media at 50 or 100 µM for 24 h. After removal of peptide solutions, cells were washed twice with 4 mL of PBS/plate and treated with 4 mL of […] dissolved in culture media and allowed to incubate for 24 h. Cells in each culture plate were harvested by incubation (5 min) with 0.5 mL of 0.25% trypsin, addition of 1 mL of culture media and centrifugation at 1000× g for 5 min. Cell pellets were washed with ice cold PBS (500 µL each) until no pink color was observed, re-suspended in ice cold PBS (300 µL) for the superoxide dismutase (SOD) assay, 500 µL for glutathione peroxidase (GPx) and catalase (CAT) assays. For total glutathione assay, 300 µL of 5% ice cold sulfosalicylic acid bubbled with 100% nitrogen was used for cell lysis. Cells were lysed by sonication on ice for 1 min using a probe-type sonicator (Vibra-Cell, Sonics and Materials Inc., Newtown, CT, USA) pulsing at 15 s on and 10 s off cycles. Following centrifugation of cell lysate at 13,000× g (4 °C), pellets containing cell debris were discarded, while supernatants were used for determination of glutathione content. Protein contents were determined using a modified Lowry assay.
The SOD activity was measured based on the rate of reduction of nitroblue tetrazolium (2.24 mM) to formazan by xanthine oxidase (13.2 U/mL) at 560 nm. Eight concentrations of each cell extract ([…] protein/mL) or SOD standard (2–500 ng/mL) were used to obtain inhibition curves. Specifically, 20 µL of cell sample, or buffer (blank) was mixed with 160 µL of assay solution, and 20 µL of xanthine oxidase was added to initiate the reaction. The reduction of nitroblue tetrazolium to blue formazan by O2^−• generated in situ was followed at 560 nm. SOD activities were calculated and expressed as units per milligram of protein.

HepG2 cells = settings: 50 or 100 µM peptide 24 h, then 20 mM AAPH 24 h, MTT
Description: Human hepatocellular carcinoma (HepG2) cells were purchased from the American Type Culture Collection (ATCC; Manassas, VA, USA). They were cultured at 37 °C in a humidified incubator with 5% CO2 and 95% air. Dulbecco’s Minimal Essential Media (DMEM) supplemented with 10% (v/v) Fetal Bovine Serum was used for the maintenance of cells. […] The MTT (3-(4,5-dimethylthiazol-2-yl)-2,5-diphenyltetrazolium bromide) assay, as described in an earlier research, was used for cytotoxicity and cytoprotective tests. […] Following another 24 h incubation, cells were washed twice with 200 µL of PBS. Ten µL of MTT solution (5 mg/mL in PBS) and 100 µL of media were added to each well. After 1 h, MTT solution was removed, and 50 µL DMSO were added. Absorbances were recorded at 570 nm with 630 nm background subtraction using a BioTek Epoch™ microplate reader (Fisher Scientific, Nepean, ON, Canada). Untreated cells were used as negative control (NC) and cells treated with only AAPH were used as positive control (PC).

SMILES	Intracellular reactive oxygen species [1]	Effect on SOD activity compared to AAPH treated cells only (PC) [2]	Cytoprotective effect against AAPH-induced damage (HepG2 cells)
CC[C@H](C)[C@H](NC(=O)[C@H](Cc1ccc(O)cc1)NC(=O)[C@@H](NC(=O)[C@H](CC(C)C)NC(=O)CN)C(C)C)C(=O)N[C@@H](CC(C)C)C(=O)O [P2] (H-GLVYIL-OH; N-terminus and C-terminus assumed)	reduced production of intracellular reactive oxygen species	increase SOD to a level equivalent to that of normal cells	–
CC[C@H](C)[C@H](NC(=O)[C@H](Cc1ccc(O)cc1)NC(=O)[C@@H](NC(=O)[C@H](CC(C)C)NC(=O)CNC(=O)[C@@H]1CCCN1C(=O)[C@H](C)NC(=O)[C@H](CC(N)=O)NC(=O)[C@H](Cc1c[nH]cn1)NC(=O)[C@@H](N)Cc1ccc(O)cc1)C(C)C)C(=O)N[C@@H](CC(C)C)C(=O)O [P6] (H-YHNAPGLVYIL-OH; N-terminus and C-terminus assumed)	reduced production of intracellular reactive oxygen species	did not affect the activity	cytoprotective
